Measured values published in PMC3528769, “Comparative Study of the Fatty Acid Binding Process of a New FABP from Cherax quadricarinatus by Fluorescence Intensity, Lifetime and Anisotropy” (PLoS ONE, 2012).

Columns and labels:
Cq-FABP [1] = target: T1, Cq-FABP (Cherax quadricarinatus, UniProt L0I6Z9); experiment: Steady-state FRET between the single Trp (W49) and ANS, Trp quenching and recovery by PA; assay type: binding; conditions: read-out: Kd,PA
Method: Fluorescence emission spectra were measured at 25°C on a Cary-Eclipse spectrofluorimeter (Varian, CA, USA) equipped with a thermostated cell holder, using solutions (70 µl) placed in microcuvettes (pathlength, 0.3 cm). The binding of non-fluorescent fatty acids (PA, OA, LA, EPA and DHA) to Cq-FABP was measured indirectly by equilibrium displacement experiments using ANS as a fluorescent probe, either by measuring the fluorescence emission of ANS or by measuring the FRET between tryptophan and ANS, resulting in the quenching of donor fluorescence. The excitation wavelength was then set at 296 or 350 nm for tryptophan or ANS, respectively; the slit widths and PMT voltage were adjusted to optimize the fluorescence signal at 25°C. For titration experiments, the fluorescence emission spectrum of tryptophan or ANS was measured and the integrated fluorescence signal of tryptophan (315–360 nm) or ANS (440–600 nm) was calculated. For samples containing high concentrations of ANS, the inner-filter effect was not negligible and was corrected. UV-visible absorption spectra were carried out on a Uvikon XL spectrophotometer.

Cq-FABP [2] = target: T1, Cq-FABP; experiment: BODIPY-C16 steady-state fluorescence anisotropy titration and competition; assay type: binding; conditions: for Kd: read-out: Kd,FA
Method: The binding of 4,4-difluoro-5, 7-dimethyl-4-bora-3a, 4a-diaza-s-indacene-3-hexadecanoic acid (BODIPY-C16) to Cq-FABP was investigated by measuring the steady-state fluorescence anisotropy parameter using a Beacon instrument (PanVera, Madison, USA), in a cell thermostatically held at 25°C. The excitation and emission bandpass filters were centered at 488 nm (±6 nm) and 525 nm (±15 nm), respectively. Titration experiments were performed in buffer C (supplemented with 10% DMSO (v/v)) by maintening a constant concentration of BODIPY-C16 (200 nM) and by adding increasing concentrations of Cq-FABP. Using a vertical direction for the polarized excitation source, the steady-state fluorescence anisotropy (r) was calculated according to: [drawing 3] (3) where IV and IH correspond to the parallel (vertical) and perpendicular (horizontal) fluorescence emission intensity components, respectively. The fraction of BODIPY-C16/Cq-FABP complexes (i.e. the fraction of BODIPY-C16 bound to Cq-FABP), fb, was calculated using the following relationship: [drawing 4] (4) where r is the measured fluorescence anisotropy value, rf and rb correspond to the fluorescence anisotropy values of free BODIPY-C16 (ligand in the free state, measured in the absence of Cq-FABP) and Cq-FABP-bound BODIPY-C16 (ligand in the bound state, corresponding to the maximum anisotropy value found at the plateau), respectively. […] The Kd characterizing the BODIPY-C16/Cq-FABP complex (Kd,C16) was calculated by fitting the plot of fb versus [Cq-FABP] using the Graphpad Prism 5.0 software.
The fluorescence anisotropy-based assay was also used in competition experiments to calculate the Kd values (Kd,FA) characterizing non-fluorescent fatty acids. The measurement of the apparent Kd value characterizing the BODIPY-C16/Cq-FABP complex (Kd ^app ,C16) under different concentration conditions for the non-fluorescent FA allows the calculation of Kd,FA according to: [drawing 5] (5) where Kd,C16 corresponds to the Kd characterizing the BODIPY-C16/Cq-FABP complex (in the absence of any non-fluorescent FA) and Kd ^app ,C16 corresponds to the apparent dissociation constant obtained for a given concentration of non-fluorescent FA. The calculation of Kd,FA was also performed in an independent manner by measuring the IC50 value characterizing each non-fluorescent FA. In this approach, the number of complexes corresponding to [C16] = 200 nM and [Cq-FABP] = 5 µM was varied by increasing the concentration of non-fluorescent FA. The IC50 value corresponds to the concentration of non-fluorescent FA that displaces 50% of C16 from the fatty acid binding site of Cq-FABP and is related to Kd,FA through the Cheng-Prusoff relationship: [drawing 6] (6)

T1 sequence (L0I6Z9 entry or part of it): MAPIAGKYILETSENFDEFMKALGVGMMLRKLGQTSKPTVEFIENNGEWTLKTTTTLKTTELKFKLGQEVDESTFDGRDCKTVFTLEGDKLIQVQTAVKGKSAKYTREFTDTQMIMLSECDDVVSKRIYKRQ

Kd (Cq-FABP [1]; FRET efficiency parameter, from slope of Kd app,PA versus [ANS] (Fig. 5B), average Kd,ANS 27.85 µM): 830 nM
Kd (Cq-FABP [1]; FRET efficiency parameter, y-intercept of Kd app,PA versus [ANS] (Fig. 5B)): 1900 nM
Kd (Cq-FABP [1]; Trp fluorescence intensity parameter, from slope of Kd app,PA versus [ANS] (Fig. 5A), average Kd,ANS 27.85 µM): 1290 nM
Kd (Cq-FABP [1]; Trp fluorescence intensity parameter, y-intercept of Kd app,PA versus [ANS] (Fig. 5A)): 1470 nM
IC50 (Cq-FABP [2]; 200 nM BODIPY-C16, 5 µM Cq-FABP, read-out: IC50 (displaces 50% of BODIPY-C16 from the fatty acid binding site)): 1170 nM
Kd (Cq-FABP [2]; calculated from the IC50 values, using Eq. 6, 200 nM BODIPY-C16, 5 µM Cq-FABP): 1150 ± 200 nM
Kd (Cq-FABP [2]; calculated from the Kd app,C16 values, using Eq. 5, 200 nM BODIPY-C16): 1600 ± 300 nM
Compound: CCCCCCCCCCCCCCCC(=O)O [PA, Palmitic acid]
